Data reported in ChEMBL document CHEMBL5653631, “A Potent and Selective ULK1 Inhibitor Suppresses Autophagy and Sensitizes Cancer Cells to Nutrient Stress” (iScience, 2018).
Each block holds one compound with its values, some of them ahead of it.

Legend:
[1] = target: Insulin receptor-related protein (Homo sapiens) (UniProt P14616); assay: Inhibition of human recombinant IRR at 500 nM related to control ULK1
[2] = target: Protein kinase C eta type (Homo sapiens) (UniProt P24723); assay: Inhibition of human recombinant PKCH at 500 nM in presence of ATP by radiometric assay relative to control
[3] = target: Cyclin-dependent kinase-like 1 (Homo sapiens) (UniProt Q00532); assay: Inhibition of human recombinant CDKL1 at 500 nM in presence of ATP by radiometric assay relative to control
[4] = target: Insulin receptor-related protein (Homo sapiens) (UniProt P14616); assay: Inhibition of human recombinant IRR at 500 nM in presence of ATP by radiometric assay relative to control
[5] = target: T1, Testis-specific serine/threonine-protein kinase 1 (Homo sapiens) (UniProt Q9BXA7); assay: Inhibition of human recombinant TSSK1 at 500 nM related to control ULK1
T1 sequence (whole entry): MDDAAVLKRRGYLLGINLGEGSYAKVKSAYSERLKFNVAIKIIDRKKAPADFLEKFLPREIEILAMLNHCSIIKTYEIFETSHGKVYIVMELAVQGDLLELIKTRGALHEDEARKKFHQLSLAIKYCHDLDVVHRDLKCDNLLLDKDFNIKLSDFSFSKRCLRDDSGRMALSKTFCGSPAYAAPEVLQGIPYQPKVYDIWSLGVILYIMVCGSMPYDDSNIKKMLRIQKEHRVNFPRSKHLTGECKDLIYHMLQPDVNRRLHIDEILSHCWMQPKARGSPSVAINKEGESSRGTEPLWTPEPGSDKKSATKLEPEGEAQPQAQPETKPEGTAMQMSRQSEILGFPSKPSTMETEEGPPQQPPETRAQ

[6] = target: T2, SNF-related serine/threonine-protein kinase (Homo sapiens) (UniProt Q9NRH2); assay: Inhibition of human recombinant SNRK at 40 nM in presence of ATP by radiometric assay relative to control
T2 sequence (whole entry): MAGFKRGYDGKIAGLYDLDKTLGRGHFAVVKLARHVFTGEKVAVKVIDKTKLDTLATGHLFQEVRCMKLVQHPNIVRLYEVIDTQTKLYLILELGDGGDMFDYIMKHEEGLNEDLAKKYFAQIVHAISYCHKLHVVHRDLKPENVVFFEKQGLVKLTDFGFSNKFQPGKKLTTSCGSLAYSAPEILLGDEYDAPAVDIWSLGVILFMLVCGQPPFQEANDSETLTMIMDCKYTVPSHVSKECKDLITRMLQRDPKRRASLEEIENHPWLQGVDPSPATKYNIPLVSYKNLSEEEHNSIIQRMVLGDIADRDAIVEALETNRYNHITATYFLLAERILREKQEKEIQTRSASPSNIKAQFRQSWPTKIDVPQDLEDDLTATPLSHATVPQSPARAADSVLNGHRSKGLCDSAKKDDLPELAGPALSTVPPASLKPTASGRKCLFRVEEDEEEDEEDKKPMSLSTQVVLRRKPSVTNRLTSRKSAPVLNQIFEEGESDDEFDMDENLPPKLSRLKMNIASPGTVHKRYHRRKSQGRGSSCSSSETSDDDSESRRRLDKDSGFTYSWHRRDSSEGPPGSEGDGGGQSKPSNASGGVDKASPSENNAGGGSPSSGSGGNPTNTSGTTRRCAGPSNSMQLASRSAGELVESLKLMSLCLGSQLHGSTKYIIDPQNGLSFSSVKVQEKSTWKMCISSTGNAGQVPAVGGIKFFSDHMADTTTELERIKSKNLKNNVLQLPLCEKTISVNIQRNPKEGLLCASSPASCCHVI

[7] = target: T3, Serine/threonine-protein kinase TAO2 (Homo sapiens) (UniProt Q9UL54); assay: Inhibition of human recombinant TAO2 at 15 nM related to control ULK1
T3 sequence (whole entry): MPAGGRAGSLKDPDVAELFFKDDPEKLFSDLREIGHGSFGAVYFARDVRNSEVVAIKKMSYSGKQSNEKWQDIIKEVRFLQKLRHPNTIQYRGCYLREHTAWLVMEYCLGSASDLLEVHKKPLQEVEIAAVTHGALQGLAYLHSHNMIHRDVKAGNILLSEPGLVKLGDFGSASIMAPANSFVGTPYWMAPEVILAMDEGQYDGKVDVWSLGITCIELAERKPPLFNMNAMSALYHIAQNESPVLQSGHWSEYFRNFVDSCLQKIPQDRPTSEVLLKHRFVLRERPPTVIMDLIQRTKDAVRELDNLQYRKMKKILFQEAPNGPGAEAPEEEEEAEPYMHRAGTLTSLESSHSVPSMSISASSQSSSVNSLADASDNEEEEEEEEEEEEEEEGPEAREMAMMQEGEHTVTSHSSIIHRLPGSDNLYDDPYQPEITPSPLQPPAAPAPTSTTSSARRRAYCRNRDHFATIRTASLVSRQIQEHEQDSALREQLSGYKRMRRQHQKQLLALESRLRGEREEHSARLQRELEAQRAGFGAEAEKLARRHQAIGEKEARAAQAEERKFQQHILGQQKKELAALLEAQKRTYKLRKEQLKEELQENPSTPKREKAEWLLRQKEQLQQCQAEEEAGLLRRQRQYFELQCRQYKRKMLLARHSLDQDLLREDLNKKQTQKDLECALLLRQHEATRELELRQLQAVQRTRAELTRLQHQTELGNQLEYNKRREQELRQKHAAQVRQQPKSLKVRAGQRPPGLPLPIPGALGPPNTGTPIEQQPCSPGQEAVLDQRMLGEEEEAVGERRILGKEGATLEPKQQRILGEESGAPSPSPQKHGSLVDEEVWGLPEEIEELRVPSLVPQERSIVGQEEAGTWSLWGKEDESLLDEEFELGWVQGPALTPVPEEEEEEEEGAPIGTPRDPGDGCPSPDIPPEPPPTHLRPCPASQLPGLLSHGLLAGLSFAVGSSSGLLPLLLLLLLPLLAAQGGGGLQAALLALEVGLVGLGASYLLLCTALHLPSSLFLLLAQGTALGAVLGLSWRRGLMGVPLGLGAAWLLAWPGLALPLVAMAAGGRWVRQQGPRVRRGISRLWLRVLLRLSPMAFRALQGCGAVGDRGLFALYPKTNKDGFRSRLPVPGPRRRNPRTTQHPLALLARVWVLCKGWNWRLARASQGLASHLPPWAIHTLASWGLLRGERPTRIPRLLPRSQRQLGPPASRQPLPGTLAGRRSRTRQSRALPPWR

[8] = target: Receptor tyrosine-protein kinase erbB-2 (Homo sapiens) (UniProt P04626); assay: Inhibition of human recombinant ErbB2 at 15 nM related to control ULK1
Sequence of Receptor tyrosine-protein kinase erbB-2 (Homo sapiens) (P04626 whole entry): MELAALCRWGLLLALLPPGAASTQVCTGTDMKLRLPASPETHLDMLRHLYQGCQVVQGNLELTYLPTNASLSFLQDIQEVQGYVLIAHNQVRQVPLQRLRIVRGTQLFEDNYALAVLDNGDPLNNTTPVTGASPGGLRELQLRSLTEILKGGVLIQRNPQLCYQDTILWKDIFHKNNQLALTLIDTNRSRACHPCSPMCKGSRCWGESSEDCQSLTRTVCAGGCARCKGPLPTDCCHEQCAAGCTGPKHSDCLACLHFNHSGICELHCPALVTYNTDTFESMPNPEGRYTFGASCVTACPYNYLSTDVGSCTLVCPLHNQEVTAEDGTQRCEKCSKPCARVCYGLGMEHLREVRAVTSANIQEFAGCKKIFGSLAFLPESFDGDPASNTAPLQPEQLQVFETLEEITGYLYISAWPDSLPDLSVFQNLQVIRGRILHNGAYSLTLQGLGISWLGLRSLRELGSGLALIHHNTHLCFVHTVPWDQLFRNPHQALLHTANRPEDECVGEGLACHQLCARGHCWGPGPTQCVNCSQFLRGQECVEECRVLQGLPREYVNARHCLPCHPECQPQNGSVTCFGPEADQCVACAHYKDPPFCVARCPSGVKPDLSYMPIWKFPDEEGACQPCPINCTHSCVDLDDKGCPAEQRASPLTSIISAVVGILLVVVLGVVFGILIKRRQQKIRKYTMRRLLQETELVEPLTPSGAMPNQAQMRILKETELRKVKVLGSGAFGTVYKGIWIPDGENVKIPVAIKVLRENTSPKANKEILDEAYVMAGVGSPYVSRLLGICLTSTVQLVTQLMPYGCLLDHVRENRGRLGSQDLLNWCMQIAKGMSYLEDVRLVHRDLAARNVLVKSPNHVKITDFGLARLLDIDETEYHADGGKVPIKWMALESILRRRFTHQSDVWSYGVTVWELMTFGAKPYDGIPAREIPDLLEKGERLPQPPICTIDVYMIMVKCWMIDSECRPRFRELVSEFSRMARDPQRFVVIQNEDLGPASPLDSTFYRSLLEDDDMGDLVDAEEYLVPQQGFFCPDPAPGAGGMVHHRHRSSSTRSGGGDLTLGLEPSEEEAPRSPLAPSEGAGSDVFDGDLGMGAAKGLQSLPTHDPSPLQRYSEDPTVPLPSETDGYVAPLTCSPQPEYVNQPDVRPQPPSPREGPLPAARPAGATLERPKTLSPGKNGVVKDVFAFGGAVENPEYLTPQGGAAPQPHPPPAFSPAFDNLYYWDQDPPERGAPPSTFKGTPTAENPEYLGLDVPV

Sequence of Insulin receptor-related protein (Homo sapiens) (P14616 27-742 limits assumed): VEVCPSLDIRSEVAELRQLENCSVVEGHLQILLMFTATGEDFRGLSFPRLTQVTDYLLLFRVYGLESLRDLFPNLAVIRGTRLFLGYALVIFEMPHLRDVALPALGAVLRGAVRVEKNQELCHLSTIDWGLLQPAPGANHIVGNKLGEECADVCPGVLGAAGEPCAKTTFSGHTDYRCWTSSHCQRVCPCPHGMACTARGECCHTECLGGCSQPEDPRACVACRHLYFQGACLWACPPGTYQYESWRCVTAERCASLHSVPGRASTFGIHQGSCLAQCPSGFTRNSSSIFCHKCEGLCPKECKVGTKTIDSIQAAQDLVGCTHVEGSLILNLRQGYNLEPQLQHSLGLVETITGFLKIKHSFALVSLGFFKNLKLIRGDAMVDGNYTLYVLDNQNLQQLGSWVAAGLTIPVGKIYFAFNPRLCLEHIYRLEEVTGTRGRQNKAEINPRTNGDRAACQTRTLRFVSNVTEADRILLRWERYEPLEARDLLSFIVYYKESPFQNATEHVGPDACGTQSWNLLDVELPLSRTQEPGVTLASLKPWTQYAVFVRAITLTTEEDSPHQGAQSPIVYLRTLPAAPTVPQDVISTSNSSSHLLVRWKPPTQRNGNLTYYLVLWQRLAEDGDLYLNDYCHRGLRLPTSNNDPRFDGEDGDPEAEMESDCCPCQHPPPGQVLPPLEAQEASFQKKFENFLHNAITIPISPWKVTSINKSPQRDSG
Sequence of Insulin receptor-related protein (Homo sapiens) (P14616 747-1297 limits assumed): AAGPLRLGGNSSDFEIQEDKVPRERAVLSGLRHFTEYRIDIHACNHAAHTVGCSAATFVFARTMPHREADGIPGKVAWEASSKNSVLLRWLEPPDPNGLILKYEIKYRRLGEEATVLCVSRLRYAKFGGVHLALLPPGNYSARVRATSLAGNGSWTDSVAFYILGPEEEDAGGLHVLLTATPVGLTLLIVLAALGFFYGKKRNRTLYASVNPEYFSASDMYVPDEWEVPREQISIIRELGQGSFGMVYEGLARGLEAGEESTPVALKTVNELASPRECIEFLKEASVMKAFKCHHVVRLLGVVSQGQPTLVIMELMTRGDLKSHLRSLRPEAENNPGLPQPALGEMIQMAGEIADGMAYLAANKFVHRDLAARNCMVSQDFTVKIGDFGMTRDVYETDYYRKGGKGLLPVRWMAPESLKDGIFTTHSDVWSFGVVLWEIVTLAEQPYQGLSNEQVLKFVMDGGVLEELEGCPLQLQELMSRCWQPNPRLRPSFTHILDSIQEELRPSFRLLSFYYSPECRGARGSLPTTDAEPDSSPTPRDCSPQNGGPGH
Sequence of Protein kinase C eta type (Homo sapiens) (P24723 whole entry): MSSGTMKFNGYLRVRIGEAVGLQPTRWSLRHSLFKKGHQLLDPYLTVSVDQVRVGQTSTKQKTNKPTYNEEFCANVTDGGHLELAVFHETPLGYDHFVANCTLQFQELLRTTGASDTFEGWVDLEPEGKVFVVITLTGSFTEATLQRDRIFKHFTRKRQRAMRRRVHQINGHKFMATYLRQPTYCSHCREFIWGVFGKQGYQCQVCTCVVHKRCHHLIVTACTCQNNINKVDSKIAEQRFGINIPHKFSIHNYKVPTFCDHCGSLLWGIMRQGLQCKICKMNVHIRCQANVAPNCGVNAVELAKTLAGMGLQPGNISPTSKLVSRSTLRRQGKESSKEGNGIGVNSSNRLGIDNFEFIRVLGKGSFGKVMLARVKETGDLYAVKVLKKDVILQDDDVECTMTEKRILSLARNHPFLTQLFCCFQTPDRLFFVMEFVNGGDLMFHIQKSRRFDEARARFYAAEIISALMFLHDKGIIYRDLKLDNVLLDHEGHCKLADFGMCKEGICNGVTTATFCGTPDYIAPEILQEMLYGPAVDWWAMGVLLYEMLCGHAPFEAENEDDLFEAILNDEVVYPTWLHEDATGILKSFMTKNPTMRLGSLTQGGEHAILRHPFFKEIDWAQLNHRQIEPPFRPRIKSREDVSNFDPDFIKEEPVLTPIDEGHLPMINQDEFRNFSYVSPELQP
Sequence of Cyclin-dependent kinase-like 1 (Homo sapiens) (Q00532 whole entry): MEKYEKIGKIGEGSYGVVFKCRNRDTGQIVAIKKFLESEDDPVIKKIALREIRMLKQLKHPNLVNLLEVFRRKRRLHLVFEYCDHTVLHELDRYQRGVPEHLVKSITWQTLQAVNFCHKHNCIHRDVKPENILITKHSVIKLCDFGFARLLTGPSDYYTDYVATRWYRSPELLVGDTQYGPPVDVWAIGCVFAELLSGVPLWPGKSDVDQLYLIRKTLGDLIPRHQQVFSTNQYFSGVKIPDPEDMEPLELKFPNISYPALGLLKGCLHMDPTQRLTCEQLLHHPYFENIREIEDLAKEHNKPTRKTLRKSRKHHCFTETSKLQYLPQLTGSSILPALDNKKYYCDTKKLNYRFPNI

- fold change (FC) [1]: 0.12
- inhibition [2]: 7%
- inhibition [3]: 0%
- inhibition [4]: 9%
- fold change (FC) [5]: 0
Compound: CNC(=O)c1ccccc1Oc1nc(Nc2cc(OC)c(OC)c(OC)c2)ncc1Br

- inhibition [6]: 0%
Compound: O=C(N[C@@H](C1CC1)C(F)(F)F)c1cc(-c2cnn3cc(-c4ccc(F)cc4)cnc23)cs1

- fold change (FC) [7]: 0
- fold change (FC) [8]: 0
Compound: CC(C)[C@H](NC(=O)c1cc(-c2cnn3cc(-c4ccc(OCCN5CCCCC5)cc4)cnc23)cs1)C(F)(F)F
